Converted amounts (≈) assume the structure as drawn.
conditions: buffer; pH 7.4; 200.0 µM

| SMILES | solubility kinetic [µg/mL] |
| --- | --- |
| CN(C)/C=C/C(=O)C(F)(F)F | 17.9 (≈ 107 µM) |
| c1ccc(CNc2nc(-c3cccnc3)cs2)cc1 | 22.4 (≈ 83.8 µM) |
| CCC(=O)c1ccc(OCC(=O)N2CCN(CC(=O)Nc3ccc(C)cc3)CC2)cc1 | > 63.5 |
| CCCC(=O)OCC(=O)NC1CCCc2ccccc21 (centres undefined) | > 41.3 |
| CN1C(=O)CCC(CCC(=O)O)(c2ccccc2O)C1=O (centres undefined) | > 43.7 |
| Cc1cc(F)ccc1S(=O)(=O)NCC1CC2CCC1C2 (centres undefined) | 4.2 (≈ 14.1 µM) |
| Cc1cc(=O)[nH]c(/N=C(\N)Nc2ccc(SC(F)F)cc2)n1 | 2 (≈ 6.15 µM) |
| NC(C(=O)O)C(c1ccccc1)C(F)F (centres undefined) | 30 (≈ 139 µM) |
| O=[N+]([O-])c1cccc(S(=O)(=O)NCc2ccncc2)c1 | > 44 |
| COc1ccc2oc(N)c(C=O)c(=O)c2c1 | 30.8 (≈ 141 µM) |
| O=C(NC(=S)Nc1ccc2c(c1)OCCO2)c1ccco1 | 40.3 (≈ 132 µM) |
| Cc1cnc(C(=O)NCCc2ccc(Cl)cc2)cn1 | 36 (≈ 131 µM) |
| CCCc1cc(=O)[nH]c(SCC(=O)Nc2ccc(C)cc2)n1 | 3.1 (≈ 9.77 µM) |
| O=C(Nc1ccccc1)/C(=C1\CCCN1)[N+](=O)[O-] | 29.6 (≈ 120 µM) |
| O=C1CS(=O)(=O)c2ccccc2N1 | > 29.6 |
| CC(C)(C)C(=O)OCc1nc(-c2ccc(Cl)cc2)cs1 | < 0.7 |
| Cc1ccc(C(C)NC(=S)NCc2ccc(F)cc2)cc1C (centres undefined) | 6.2 (≈ 19.6 µM) |
| CC(C)C(NC(=O)c1ccc(Cl)cc1)C(=O)NCC1CCCO1 (centres undefined) | > 50.8 |
| CCOC(=O)Cc1nc2nc(C)cc(C)n2n1 | > 35.1 |
| O=C(COC(=O)c1cc(Cl)ccc1[N+](=O)[O-])NC1CC1 | > 44.8 |
| CC(C)n1c(SCC(=O)NC2CC2)nnc1-c1ccco1 | > 46 |

| SMILES | solubility kinetic [µg/mL] |
| --- | --- |
| OC(CNC1Cc2ccccc2C1)COc1ccc(Cl)cc1 (centres undefined) | > 47.7 |
| CN1CCN(C(=O)C23CCC(C)(C(=O)C2Br)C3(C)C)CC1 (centres undefined) | > 53.6 |
| O=C(O)CC1(CC(=O)NCc2ccccn2)CCCCC1 | > 43.6 |
| N#C/C(=C(/O)c1ccco1)c1nc2ccccc2s1 | > 40.2 |
| O=C(Nc1ccccc1F)c1ccc2ncsc2c1 | > 40.8 |
| CCC(CC)C(=O)Nc1ccc(-c2cn3cccnc3n2)cc1 | 43.4 (≈ 141 µM) |
| CCCSCCCNC(=O)Cn1c(=O)c2cccn2c2ccccc21 | 7.7 (≈ 21.5 µM) |
| O=C(Nc1ccc(Cl)c(NC(=O)c2cccs2)c1)c1ccco1 | 37.4 (≈ 108 µM) |
| O=C(O)C1=C(C(=O)Nc2cc(C(F)(F)F)ccc2Cl)CCCC1 | 12.5 (≈ 35.9 µM) |
| On1c(-c2ccccc2Cl)nc2ncccc21 | > 36.9 |
| CCOC(=O)c1sc2nc(C)[nH]c(=O)c2c1C | 2.7 (≈ 10.7 µM) |
| CCc1nc2ccccc2c(C(=O)OCC(=O)NC2CC2)c1C | > 46.9 |
| COC(=O)C1=C(C(=O)OC)SC(=C2C(=S)C(C)(C)N(C(=O)C(C)C)c3ccccc32)S1 | < 1 |
| Nc1nc(-c2ccccc2)c(-c2ccccc2)o1 | > 35.4 |
| COC(=O)C(=CC(=CN(C)C)C=C(C(=O)OC)C(=O)OC)C(=O)OC | > 53.3 |
| Cc1ccc(N=Cc2c(O)c3ccccc3oc2=O)c(C)c1 | < 0.6 |
| CN(C)CCCN1C(=O)c2cccc3cccc(c23)C1=O | > 42.4 |
| CN(C)S(=O)(=O)c1cccc(NC(=O)c2ccc(NS(=O)(=O)c3cccs3)cc2)c1 | 59.5 (≈ 128 µM) |
| CC1CCCN(C(=O)COC(=O)COc2ccc(C#N)cc2)C1 (centres undefined) | > 47.5 |
| Cc1cccc(C(=O)OCC(=O)NCC2CCCO2)c1O (centres undefined) | > 44 |
| O=C(COC(=O)COc1ccccc1F)Nc1ccc(Cl)cn1 | 7.6 (≈ 22.4 µM) |

| SMILES | solubility kinetic [µg/mL] |
| --- | --- |
| CCn1c(CO)nc2c1c(=O)[nH]c(=O)n2Cc1ccccc1 | > 45 |
| c1cncc(C2OCC3(CO2)COC(c2cccnc2)OC3)c1 (centres undefined) | > 47.2 |
| CCOc1ccc2nc(NC(=O)c3ccc(C)o3)sc2c1 | 0.6 (≈ 1.98 µM) |
| CC(=O)Nc1c(C(N)=O)oc2ccc(Cl)cc12 | > 37.9 |
| NS(=O)(=O)c1ccc(NC(=O)CCC(=O)c2cccs2)cc1 | 14.7 (≈ 43.4 µM) |
| Cc1ccc(C(=O)NCC(=O)OCC(=O)NCC(F)(F)F)cc1 | 47.1 (≈ 142 µM) |
| Cc1ccc(CNC(=O)CNC(=O)c2ccc(Br)o2)cc1 | 14.6 (≈ 41.6 µM) |
| CCOC(=O)C1C(c2ccc(Cl)cc2)NC(=S)NC1(O)C(F)(F)F (centres undefined) | 37.8 (≈ 98.7 µM) |
| Cn1c(N)c(C(=O)COC(=O)COc2ccc(Cl)cc2Cl)c(=O)n(C)c1=O | 4.7 (≈ 11.3 µM) |
| COc1ccc2c(c1)CC(=O)NC=C2 | > 28.4 |
| COC(=O)c1ccc(S(=O)(=O)NCc2ccccn2)n1C | 39.6 (≈ 128 µM) |
| C/C(CC(=O)NCCN1CCOCC1)=N\NC(=O)c1ccncc1 | > 50 |
| Cc1cccc(CCNCc2cc3cc(C)cc(C)c3[nH]c2=O)c1 | 42.5 (≈ 133 µM) |
| O=C(OCc1cccc([N+](=O)[O-])c1)c1ccc[nH]c1=O | > 41.1 |
| Cc1ccc(Oc2ncccc2C(=O)NCC(=O)O)cc1 | 42.7 (≈ 149 µM) |
| COc1cccc(COc2ncnc3sccc23)c1 | 37.2 (≈ 137 µM) |
| COc1cc([N+](=O)[O-])cc2sc(NC(C)=O)nc12 | 2.7 (≈ 10.1 µM) |
| COCC[N+]1(C)CCCCC1.[I-] | > 42.8 |
| Clc1ccc(-c2cc(-c3ccccn3)on2)c(Cl)c1 | < 0.3 |
| CC1(C)Oc2ccc3ccc(=O)oc3c2C(/C=N/O)=C1Cl | 12.5 (≈ 40.9 µM) |
| COc1ccc(CNC(=O)CSc2nc(SC)ns2)cc1 | 26.4 (≈ 77.3 µM) |

More lines, now with the values ahead:

| solubility kinetic [µg/mL] | SMILES |
| --- | --- |
| 4.9 (≈ 13.7 µM) | COc1cccc(NC(=S)N2CCc3cc(OC)c(OC)cc3C2)c1 |
| 55.7 (≈ 119 µM) | CCCCC1(c2ccc(F)cc2)NC(=O)N(CC(=O)Nc2ccc(N3CCOCC3)cc2)C1=O (centres undefined) |
| > 47.2 | CCc1ccc(N2CC(C(=O)N3CCCCCC3)CC2=O)cc1 (centres undefined) |
| < 0.3 | O=C(CSc1nc(C2CC2)nc2ccccc12)Nc1cccc(O)c1 |
| > 35.7 | C(#Cc1ccccc1)CN1CCOCC1.Cl |
| 1 (≈ 3.1 µM) | CCc1ccccc1NC(=O)c1ccc(-c2csc(C)n2)cc1 |
| > 62.8 | O=C(COC(=O)c1cccc(S(=O)(=O)N2CCOCC2)c1)NCc1ccccc1 |
| 25.4 (≈ 62.8 µM) | CN(Cc1cccc(F)c1)C(=O)c1ccc(S(=O)(=O)N2CCCCCC2)cc1 |
| > 39.9 | O=C1CC(Cc2ccccc2)C(=O)N1c1ccccn1 (centres undefined) |
| > 46.5 | O=C(O)CCC(=O)Nc1cccc(-c2nc3ccccc3o2)c1 |
| > 45.2 | CCc1ccccc1N1CN(Cc2ccco2)CNC1=S |
| > 45.8 | CCc1ccccc1NC(=O)c1cnn(-c2ccccc2)c1C |
| 45.6 (≈ 147 µM) | CCN1CCN(S(=O)(=O)c2ccc(C(C)(C)C)cc2)CC1 |
| 49.9 (≈ 147 µM) | COc1ccc(CC(=O)N2CCN(c3ccccc3)CC2)cc1OC |
| 4.9 (≈ 12.1 µM) | CN1CCN(S(=O)(=O)c2ccc(NC(=O)c3ccc([N+](=O)[O-])cc3)cc2)CC1 |
| > 39.2 | CCOC(=O)C1=C(O)C(=O)N(Cc2ccccc2)C1 |
| 61.9 (≈ 148 µM) | O=C(c1cccc(S(=O)(=O)N2CCN(c3ccc(F)cc3)CC2)c1)N1CCCC1 |
| < 0.3 | CCC(=O)Nc1ccc(NC(=O)c2cccc3ccccc23)cc1 |
| 3.8 (≈ 11.4 µM) | CSc1ccc(/C=C/C(=O)OCC(=O)N2CCCCCC2)cc1 |

| solubility kinetic [µg/mL] | SMILES |
| --- | --- |
| 2.4 (≈ 7.03 µM) | C=CCN(C(=O)CN1CCCCC1)c1nc(-c2ccccc2)cs1 |
| > 59 | COc1ccccc1C(=O)NCC(=O)N1CCN(C/C=C/c2ccccc2)CC1 |
| 15 (≈ 36.1 µM) | COc1cccc(C(=O)Nc2ccccc2N2CCN(C(=O)c3ccccc3)CC2)c1 |
| 7.6 (≈ 18.2 µM) | O=C(CCc1ccc(S(=O)(=O)N2CCOCC2)cc1)OCC(=O)c1ccccc1 |
| > 36.6 | Nc1ccccc1C(=O)NCc1ccc(F)cc1 |
| < 0.6 | CC1CCN(C(=O)c2cc3c(ccc4ccccc43)o2)CC1 |
| 35.6 (≈ 138 µM) | C=CCN1CCN(C(=O)CCc2ccccc2)CC1 |
| > 46.9 | CN(C)c1cccc(C(=O)OCC(=O)N(C)c2ccccc2)c1 |
| > 65.5 | CCOC(=O)C1CCN(C(=O)/C=C/c2ccc(S(=O)(=O)N3CCOCC3)cc2)CC1 |
| > 49.3 | COc1cc(C(=O)N2CCCN(C)CC2)cc(OC)c1C.Cl |
| < 0.4 | O=C(CN1CCCCC1)Nc1scc2c1c(=O)oc1ccccc12 |
| 26.6 (≈ 118 µM) | O=S(=O)(c1ccccc1)N1CCNCC1 |
| 50.3 (≈ 124 µM) | CC1Cc2ccccc2N1C(=O)c1ccc(F)c(S(=O)(=O)N2CCOCC2)c1 (centres undefined) |
| 7.2 (≈ 27.9 µM) | O=C(c1ccc(Cl)cc1)N1CCc2ccccc21 |
| 36.3 (≈ 105 µM) | Cc1ccc(C)n1CCN1CCN(C(=O)c2ccc(Cl)cc2)CC1 |
| > 49 | Cc1ccc(C(=O)N2CCC(C(=O)NCc3ccco3)CC2)cc1 |
| 37.7 (≈ 138 µM) | COc1ccc(C(C)=O)cc1CSc1ccccn1 |
| > 44.8 | COc1ccc(S(=O)(=O)NC2CCCC2)cc1C(N)=O |
| > 40 | OCCCc1nc2ccccc2n1Cc1ccccc1 |

| solubility kinetic [µg/mL] | SMILES |
| --- | --- |
| > 59.2 | CCOc1ccccc1N1CC(C(=O)N(CC)C2CCS(=O)(=O)C2)CC1=O (centres undefined) |
| > 43.3 | COc1ccc(CCNc2cc(C)nc(N)n2)cc1OC |
| > 41.9 | COc1ccc(C(=O)OCC(=O)NC2CC2)cc1OC |
| > 45.8 | Cc1cccc(C)c1NC(=O)c1cnn(-c2ccccc2)c1C |
| 36.4 (≈ 144 µM) | N#CCc1ccc(OC(=O)Nc2ccccc2)cc1 |
| > 56.6 | COc1ccc(C(=O)COC(=O)CNC(=O)c2ccc(C)s2)c(OC)c1 |
| 4 (≈ 14.2 µM) | COc1ccc(NC(=O)c2oc3ccccc3c2C)cn1 |
| > 56.5 | COc1ccc(OC)c(S(=O)(=O)N2CCN(C)CC2c2ccccc2)c1 (centres undefined) |
| > 47.3 | CC(=O)C1=C(O)C(=O)N(Cc2ccco2)C1c1ccccc1F (centres undefined) |
| > 45.8 | COc1ccc(C(=O)COC(=O)c2cc(C)no2)c(OC)c1 |
| > 47.8 | CCN(CC(=O)Nc1ccccc1OC)C(=O)CC1CCCC1 |
| > 50.2 | O=C(Nc1ccccn1)c1ccc2c(=O)n3c(nc2c1)CCCCC3 |
| > 45.4 | CC(C)(C)CC(=O)NCCc1csc(-c2ccccc2)n1 |
| 53 (≈ 150 µM) | C#CCOc1ccc2ccccc2c1/C=C(/C#N)c1ccc(C(=O)O)cc1 |
| > 44.9 | Cc1cccnc1NC(=O)CNC(=O)COc1ccccc1 |
| 25.3 (≈ 72.2 µM) | COc1ccc(C(=O)CN2C(=O)NC3(CCc4ccccc43)C2=O)cc1 (centres undefined) |
| > 42.2 | COc1cc(C(=S)N2CCCC2)cc(OC)c1OC |
| > 40.2 | COc1ccccc1-c1nc2ccccc2c(=O)n1O |
